Source: patent publication US5929070A (Eli Lilly and Company, priority 1997, dated 1999)

Key:
[1] = test system: muscarinic cholinergic receptor; test: pharmacological studies, muscarinic cholinergic receptor activity
migraine pain = test: Utility tests for migraine analgesic activity (mouse writhing, acetic acid-induced writhing, protein extravasation and related tests); format: in vivo, mice; rats; guinea pigs; rabbits; conditions: summary statement for the utility tests, no values given
5-HT1C receptor = test: pharmacological studies, 5-HT1C receptor activity

## Cc1cc2c(s1)Nc1ccccc1N=C2N1CCN(C)CC1 [olanzapine, 2-methyl-4-(4-methyl-1-piperazinyl)-10H-thieno[2,3-b][1,5]benzodiazepine]
[1]
  muscarinic cholinergic receptor activity: has muscarinic cholinergic receptor activity
Migraine pain
  migraine pain analgesic effect: can provide a significant migraine pain analgesic effect
5-HT1C receptor
  activity at the 5-HT1C receptor: active
